Test results taken from PubChem BioAssay AID330 (DTP/NCI, 2004).
Values joined by “and” are separate entries in the source; they are usually repeats but may differ in a detail not shown here. Identical values can stand only once. Toxic doses and inconclusive results are not listed.

Test system: P388 leukemia ip, CD2F1 mice, survival T/C
Experiment: NCI In Vivo Anticancer Drug Screen. Data for tumor model P388 Leukemia (intraperitoneal) in CD2F1 (CDF1) mice
Details: endpoint: median survival time, higher = longer survival
Procedure, shortened: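 Mice carrying the transplanted tumor received test compound or vehicle. Survival was recorded in each group, and the value is the treated-group measurement divided by that of the vehicle-treated control group.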

[1] = dose: 50.0 mg/kg/injection, schedule: Q01DX009 (ip), vehicle: saline with Tween-80
[2] = dose: 100.0 mg/kg/injection, schedule: Q01DX009 (ip), vehicle: saline with Tween-80
[3] = dose: 200.0 mg/kg/injection, schedule: Q01DX009 (ip), vehicle: saline with Tween-80
[4] = dose: 12.5 mg/kg/injection, schedule: Q01DX009 (ip), vehicle: saline with Tween-80
[5] = dose: 25.0 mg/kg/injection, schedule: Q01DX009 (ip), vehicle: saline with Tween-80

## CC1(C)COC2(CC3(C)CC(=O)CC3(C)C2)OC1 (stereo not given)
[1]
  T/C: 105 % of control
[2]
  T/C: 90 % of control
[3]
  T/C: 102 % of control

## COC(=O)CN1CC1
dose: 3.12 mg/kg/injection, schedule: Q01DX009 (ip), vehicle: saline with Tween-80
  T/C: 100 % of control
dose: 6.25 mg/kg/injection, schedule: Q01DX009 (ip), vehicle: saline with Tween-80
  T/C: 95 % of control
[4]
  T/C: 94 % of control
[5]
  T/C: 95 % of control

## CP1(=S)CC(Br)=C2CCCCC21 (stereo not given)
dose: 100.0 mg/kg/injection, schedule: Q04DX003 (ip), vehicle: Klucel (hydroxypropylcellulose) (HPC)
  T/C: 108 % of control
dose: 200.0 mg/kg/injection, schedule: Q04DX003 (ip), vehicle: Klucel (hydroxypropylcellulose) (HPC)
  T/C: 106 % of control
dose: 400.0 mg/kg/injection, schedule: Q04DX003 (ip), vehicle: Klucel (hydroxypropylcellulose) (HPC)
  T/C: 107 % of control

## Cc1ccc(N2C(=O)CC3(CCCC3)C2=O)cc1[N+](=O)[O-]
dose: 100.0 mg/kg/injection, schedule: Q04DX002 (ip), vehicle: Klucel (hydroxypropylcellulose) (HPC)
  T/C: 106 % of control
dose: 200.0 mg/kg/injection, schedule: Q04DX002 (ip), vehicle: Klucel (hydroxypropylcellulose) (HPC)
  T/C: 105 % of control
dose: 400.0 mg/kg/injection, schedule: Q04DX002 (ip), vehicle: Klucel (hydroxypropylcellulose) (HPC)
  T/C: 97 % of control

## Cc1ccc(-c2nc(N)[nH]c2-c2ccc(C)cc2)cc1
dose: 5.0 mg/kg/injection, schedule: Q04DX002 (ip), vehicle: saline with Tween-80
  T/C: 104 % of control
dose: 10.0 mg/kg/injection, schedule: Q04DX002 (ip), vehicle: saline with Tween-80
  T/C: 100 % of control
dose: 20.0 mg/kg/injection, schedule: Q04DX002 (ip), vehicle: saline with Tween-80
  T/C: 99 % of control

## O=C(CCCc1ccc(N(CCCl)CCCl)cc1)OCCOc1ccccc1
[4]
  T/C: 155 % of control
[5]
  T/C: 223 % of control
[1]
  T/C: 174 % of control and 200 % of control

## COc1cccc2c1C(=O)c1c(O)c3c(c(O)c1C2=O)C[C@@](O)(C(C)=O)C[C@@H]3OC1CC(N2CCCCC2)C(O)C(C)O1 (stereo not given in full)
dose: 1.56 mg/kg/injection, schedule: Q04DX003 (ip), vehicle: water
  T/C: 111 % of control
dose: 6.25 mg/kg/injection, schedule: Q04DX003 (ip), vehicle: distilled water + Tween-80
  T/C: 191 % of control
dose: 6.25 mg/kg/injection, schedule: Q04DX003 (ip), vehicle: water
  T/C: 163 % of control
dose: 12.5 mg/kg/injection, schedule: Q04DX003 (ip), vehicle: distilled water + Tween-80
  T/C: 106 % of control
dose: 12.5 mg/kg/injection, schedule: Q04DX003 (ip), vehicle: water
  T/C: 111 % of control
dose: 25.0 mg/kg/injection, schedule: Q04DX003 (ip), vehicle: distilled water + Tween-80
  T/C: 99 % of control

## NC(=S)N/N=C/c1ccncc1
[5]
  T/C: 108 % of control
[1]
  T/C: 98 % of control
[2]
  T/C: 101 % of control
[3]
  T/C: 92 % of control

## O=C1C2CCc3cnn(-c4ccccc4)c3C2C(=O)N1c1ccccc1 (stereo not given)
dose: 50.0 mg/kg/injection, schedule: Q01DX005 (ip), vehicle: saline with Tween-80
  T/C: 101 % of control
dose: 100.0 mg/kg/injection, schedule: Q01DX005 (ip), vehicle: saline with Tween-80
  T/C: 99 % of control
dose: 200.0 mg/kg/injection, schedule: Q01DX005 (ip), vehicle: saline with Tween-80
  T/C: 94 % of control

## CCCCCCCCCCCCOc1ccccc1C(=O)O
dose: 6.25 mg/kg/injection, schedule: Q04DX003 (ip), vehicle: saline sonified
  T/C: 100 % of control
dose: 12.5 mg/kg/injection, schedule: Q04DX003 (ip), vehicle: saline sonified
  T/C: 100 % of control
dose: 25.0 mg/kg/injection, schedule: Q04DX003 (ip), vehicle: saline sonified
  T/C: 100 % of control

## O=C1c2ccccc2C(=O)C1c1cc(Cl)c(O)c(Cl)c1
dose: 50.0 mg/kg/injection, schedule: Q04DX002 (ip), vehicle: saline
  T/C: 100 % of control
dose: 50.0 mg/kg/injection, schedule: Q04DX002 (ip), vehicle: suspension in saline
  T/C: 99 % of control
dose: 100.0 mg/kg/injection, schedule: Q04DX002 (ip), vehicle: saline
  T/C: 117 % of control and 94 % of control
dose: 100.0 mg/kg/injection, schedule: Q04DX002 (ip), vehicle: suspension in saline
  T/C: 98 % of control
dose: 200.0 mg/kg/injection, schedule: Q04DX002 (ip), vehicle: saline
  T/C: 101 % of control and 117 % of control
dose: 200.0 mg/kg/injection, schedule: Q04DX002 (ip), vehicle: suspension in saline
  T/C: 100 % of control
dose: 400.0 mg/kg/injection, schedule: Q04DX002 (ip), vehicle: saline
  T/C: 96 % of control
dose: 400.0 mg/kg/injection, schedule: Q04DX002 (ip), vehicle: suspension in saline
  T/C: 100 % of control

## Cc1nnc2c([N+](=O)[O-])c(N)c(Cl)nn12
dose: 7.5 mg/kg/injection, schedule: Q01DX005 (ip), vehicle: saline with Tween-80
  T/C: 118 % of control
dose: 15.0 mg/kg/injection, schedule: Q01DX005 (ip), vehicle: saline with Tween-80
  T/C: 113 % of control
